Type in all cases: biochemical
In one assay the target is T1, Recombinant human FAP (Homo sapiens, UniProt Q12884).
T1 construct: purchased R&D systems
T1 sequence (Q12884 1-760): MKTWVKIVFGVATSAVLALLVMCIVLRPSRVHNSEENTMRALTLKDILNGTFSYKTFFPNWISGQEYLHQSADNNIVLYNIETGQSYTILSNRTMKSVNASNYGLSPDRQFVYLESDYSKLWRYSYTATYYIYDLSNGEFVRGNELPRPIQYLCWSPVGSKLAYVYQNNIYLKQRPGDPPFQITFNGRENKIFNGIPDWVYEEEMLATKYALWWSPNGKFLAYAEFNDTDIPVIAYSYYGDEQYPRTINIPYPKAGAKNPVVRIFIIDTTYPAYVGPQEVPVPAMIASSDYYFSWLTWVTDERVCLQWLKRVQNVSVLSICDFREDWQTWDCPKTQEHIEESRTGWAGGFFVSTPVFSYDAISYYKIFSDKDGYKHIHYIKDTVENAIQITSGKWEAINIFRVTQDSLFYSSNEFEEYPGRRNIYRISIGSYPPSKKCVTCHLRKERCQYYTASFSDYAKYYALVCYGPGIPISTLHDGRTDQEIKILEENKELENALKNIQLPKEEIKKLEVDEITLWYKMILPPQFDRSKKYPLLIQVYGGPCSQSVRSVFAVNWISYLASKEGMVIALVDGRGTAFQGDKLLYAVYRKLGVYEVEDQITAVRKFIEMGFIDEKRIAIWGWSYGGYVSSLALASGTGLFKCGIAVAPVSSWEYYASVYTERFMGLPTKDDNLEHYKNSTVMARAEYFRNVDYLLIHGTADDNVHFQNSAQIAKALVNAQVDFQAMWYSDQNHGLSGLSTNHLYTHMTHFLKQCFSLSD
The assay is described as follows: FAP inhibition, fluorogenic substrate Z-Gly-Pro-AMC. The conditions noted are these: recombinant human FAP, substrate Z-Gly-Pro-AMC. In short, it runs like this: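 Recombinant human FAP, 10 ng per reaction, in 50 mM Tris pH 7.5 with 1 M NaCl and 1 mg/ml BSA at 25° C; substrate Z-Gly-Pro-AMC, ≤0.1% DMSO. AMC fluorescence read at ex 380/em 460 nm; % signal-rate decrease vs no-inhibitor control, 8-point curves fitted to a four-parameter logistic for IC50.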

The next assay has as its target T2, recombinant human DPP7 (Homo sapiens, UniProt Q9UHL4).
T2 construct: purchased R&D Systems
As to the kind of experiment: DPP7 inhibition, fluorogenic substrate Lys-Pro-AMC. The conditions noted are these: recombinant human DPP7. The method in brief: (§1)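 Enzyme per reaction: 50 ng DPP9, 20 ng DPP8, 10 ng each DPP7 and PREP. Compounds were serially diluted (8 points, up to 0.5% DMSO) and incubated at 25 °C.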

The target of another assay is T3, recombinant human DPP8 (Homo sapiens, UniProt Q6V1X1).
T3 construct: purchased PBS Bioscience
The assay is described as follows: DPP8 inhibition, fluorogenic substrate Z-Ala-Pro-AMC. The note with it: recombinant human DPP8. In short, it runs like this: as §1

A further assay addresses T4, recombinant human DPP9 (Homo sapiens, UniProt Q86TI2).
T4 construct: purchased R&D Systems
As to the kind of experiment: DPP9 inhibition, fluorogenic substrate H-Gly-Pro-AMC. The conditions noted are these: recombinant human DPP9. In short, it runs like this:
as §1

A further assay deals with T5, recombinant human PREP (Homo sapiens, UniProt P48147).
T5 construct: purchased R&D System
T5 sequence (P48147 1-710): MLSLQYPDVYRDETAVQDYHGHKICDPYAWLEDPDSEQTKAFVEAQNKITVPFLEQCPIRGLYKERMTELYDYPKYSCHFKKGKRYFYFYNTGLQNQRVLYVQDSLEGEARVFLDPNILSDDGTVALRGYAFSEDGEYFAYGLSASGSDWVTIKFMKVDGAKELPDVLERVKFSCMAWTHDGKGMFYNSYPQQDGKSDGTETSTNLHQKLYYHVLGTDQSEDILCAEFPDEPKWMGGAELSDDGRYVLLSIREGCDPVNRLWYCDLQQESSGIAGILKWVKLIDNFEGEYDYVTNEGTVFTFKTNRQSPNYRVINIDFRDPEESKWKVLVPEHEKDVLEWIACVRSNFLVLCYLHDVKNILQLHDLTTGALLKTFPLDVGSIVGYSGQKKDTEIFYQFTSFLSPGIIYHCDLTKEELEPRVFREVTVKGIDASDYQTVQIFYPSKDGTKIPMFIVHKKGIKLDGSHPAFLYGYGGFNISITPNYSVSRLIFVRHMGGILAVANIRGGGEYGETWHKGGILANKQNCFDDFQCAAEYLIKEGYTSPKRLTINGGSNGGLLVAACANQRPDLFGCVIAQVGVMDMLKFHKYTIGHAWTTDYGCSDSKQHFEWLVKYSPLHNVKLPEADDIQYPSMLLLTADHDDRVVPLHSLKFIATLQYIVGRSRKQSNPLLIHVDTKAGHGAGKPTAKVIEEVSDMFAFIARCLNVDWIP
As to the kind of experiment: PREP inhibition, fluorogenic substrate Z-Gly-Pro-AMC. The conditions noted are these: Inhibitory Activity (IC50, nM) PREP, recombinant human PREP. The method in brief:
as §1

Another assay deals with DPP4 (Homo sapiens, UniProt P27487). The assay is described as follows: DPP4 inhibition, fluorogenic substrate H-Gly-Pro-AMC. Also noted: purchased R&D Systems. The conditions noted are these: recombinant human DPP4.

Some results are limits rather than exact numbers.

T4 sequence (Q86TI2 whole entry): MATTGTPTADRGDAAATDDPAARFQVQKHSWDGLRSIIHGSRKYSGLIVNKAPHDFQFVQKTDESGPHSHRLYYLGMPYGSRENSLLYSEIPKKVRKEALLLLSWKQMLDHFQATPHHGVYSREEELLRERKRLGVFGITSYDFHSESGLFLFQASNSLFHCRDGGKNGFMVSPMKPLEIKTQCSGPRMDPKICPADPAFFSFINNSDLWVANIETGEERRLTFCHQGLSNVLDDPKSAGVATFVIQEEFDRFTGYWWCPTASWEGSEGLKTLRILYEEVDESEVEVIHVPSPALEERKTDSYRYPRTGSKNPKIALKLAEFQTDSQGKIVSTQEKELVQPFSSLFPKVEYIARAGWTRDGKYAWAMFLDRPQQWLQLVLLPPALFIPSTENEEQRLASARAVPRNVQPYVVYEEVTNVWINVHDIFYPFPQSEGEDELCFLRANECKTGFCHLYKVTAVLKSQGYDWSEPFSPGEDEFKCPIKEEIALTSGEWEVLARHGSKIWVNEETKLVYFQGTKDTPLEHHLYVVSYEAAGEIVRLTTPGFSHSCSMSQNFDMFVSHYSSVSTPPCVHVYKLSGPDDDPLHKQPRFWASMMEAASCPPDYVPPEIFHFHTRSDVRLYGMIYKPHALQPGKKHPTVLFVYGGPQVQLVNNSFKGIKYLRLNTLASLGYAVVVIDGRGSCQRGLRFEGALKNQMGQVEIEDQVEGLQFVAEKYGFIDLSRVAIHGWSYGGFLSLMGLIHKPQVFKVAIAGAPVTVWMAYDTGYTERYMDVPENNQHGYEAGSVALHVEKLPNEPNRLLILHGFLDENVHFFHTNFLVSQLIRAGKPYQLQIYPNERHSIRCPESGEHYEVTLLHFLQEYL
Chain of DPP4 (P27487 whole entry): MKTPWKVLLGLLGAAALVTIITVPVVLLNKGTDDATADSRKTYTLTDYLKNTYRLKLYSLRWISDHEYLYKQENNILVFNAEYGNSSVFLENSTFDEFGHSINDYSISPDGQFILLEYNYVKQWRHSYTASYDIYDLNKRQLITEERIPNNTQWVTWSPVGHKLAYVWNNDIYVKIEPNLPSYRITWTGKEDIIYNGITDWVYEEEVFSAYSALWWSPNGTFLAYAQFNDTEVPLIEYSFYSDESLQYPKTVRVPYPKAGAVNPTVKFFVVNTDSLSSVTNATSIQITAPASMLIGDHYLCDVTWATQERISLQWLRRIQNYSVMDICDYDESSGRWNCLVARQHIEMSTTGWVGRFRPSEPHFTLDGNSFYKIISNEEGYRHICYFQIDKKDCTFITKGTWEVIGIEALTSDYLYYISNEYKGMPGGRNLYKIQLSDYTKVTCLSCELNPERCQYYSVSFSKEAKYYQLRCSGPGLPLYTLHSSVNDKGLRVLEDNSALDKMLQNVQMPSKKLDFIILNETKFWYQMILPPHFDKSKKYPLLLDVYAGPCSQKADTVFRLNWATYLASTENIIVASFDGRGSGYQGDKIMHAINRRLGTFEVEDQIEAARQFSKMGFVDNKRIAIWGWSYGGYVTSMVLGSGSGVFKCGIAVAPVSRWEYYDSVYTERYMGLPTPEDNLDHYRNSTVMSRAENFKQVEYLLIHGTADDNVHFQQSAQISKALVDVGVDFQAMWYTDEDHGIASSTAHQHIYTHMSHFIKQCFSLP
T3 sequence (Q6V1X1 whole entry): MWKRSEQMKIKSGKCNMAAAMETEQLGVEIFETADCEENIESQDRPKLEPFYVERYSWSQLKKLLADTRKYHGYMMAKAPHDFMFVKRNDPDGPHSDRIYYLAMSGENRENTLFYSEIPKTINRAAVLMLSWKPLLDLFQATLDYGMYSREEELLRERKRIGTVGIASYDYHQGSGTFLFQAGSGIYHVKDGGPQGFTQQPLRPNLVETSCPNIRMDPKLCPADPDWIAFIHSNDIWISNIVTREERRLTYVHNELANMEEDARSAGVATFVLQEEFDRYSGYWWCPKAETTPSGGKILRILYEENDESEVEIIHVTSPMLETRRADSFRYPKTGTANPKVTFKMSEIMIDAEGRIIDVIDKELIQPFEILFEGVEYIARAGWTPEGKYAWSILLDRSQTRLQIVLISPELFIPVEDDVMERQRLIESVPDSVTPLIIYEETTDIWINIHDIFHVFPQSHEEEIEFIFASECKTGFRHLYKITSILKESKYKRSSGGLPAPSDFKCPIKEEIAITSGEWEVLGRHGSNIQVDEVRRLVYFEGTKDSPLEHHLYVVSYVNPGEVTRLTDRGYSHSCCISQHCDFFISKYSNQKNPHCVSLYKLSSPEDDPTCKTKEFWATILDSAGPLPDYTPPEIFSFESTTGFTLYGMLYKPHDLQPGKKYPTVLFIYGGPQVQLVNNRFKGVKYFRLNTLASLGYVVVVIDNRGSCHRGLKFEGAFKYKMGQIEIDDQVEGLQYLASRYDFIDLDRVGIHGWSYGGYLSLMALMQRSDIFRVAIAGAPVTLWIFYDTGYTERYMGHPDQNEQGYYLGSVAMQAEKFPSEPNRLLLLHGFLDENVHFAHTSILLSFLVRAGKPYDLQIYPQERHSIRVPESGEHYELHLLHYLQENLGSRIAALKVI

For orientation: IC50 means the concentration that inhibits the measured activity by half. Regarding `N#C[C@@H]1CCCN1C(=O)CN1CC[C@H](Nc2ccc3ncccc3c2)C1` [Example 230, (2S)-1-[2-[(3S)-3-(6-quinolylamino)pyrrolidin-1-yl]acetyl]pyrrolidine-2-carbonitrile], the IC50 on Recombinant human FAP is 0.0093 µM; on recombinant human DPP7, 1.36 µM; at recombinant human DPP8, over 100 µM; at recombinant human DPP9, 17.6 µM; at recombinant human PREP, 8770 nM; at DPP4 it was over 10 µM.

For `N#Cc1ccc2c(N[C@H]3CCN(CC(=O)N4CCC[C@H]4C#N)C3)cccc2n1` [Example 231, 5-[[(3S)-1-[2-oxo-2-[(2S)-2-cyanopyrrolidin-1-yl]ethyl]pyrrolidin-3-yl]amino]quinoline-2-carbonitrile], the IC50 at Recombinant human FAP was 0.001 µM; on recombinant human DPP7 it was 1.51 µM; at recombinant human DPP8 it was 12.6 µM; on recombinant human DPP9, 21.6 µM; at recombinant human PREP, 11500 nM; at DPP4, over 10 µM.

With `N#C[C@@H]1CCCN1C(=O)CN1CC[C@H](Nc2cccc3ncc(Cl)cc23)C1` [Example 235, (2S)-1-[2-[(3S)-3-[(3-chloro-5-quinolyl)amino]pyrrolidin-1-yl]acetyl]pyrrolidine-2-carbonitrile], the IC50 on Recombinant human FAP is 0.0007 µM; on recombinant human DPP7 it was 2.79 µM; at recombinant human DPP8, 23.4 µM; at recombinant human DPP9, 17.6 µM; at recombinant human PREP, 8460 nM; at DPP4, over 10 µM.

On to `N#C[C@@H]1CCCN1C(=O)CN1CC[C@H](Nc2cc(F)cc3ncccc23)C1` [Example 236, (2S)-1-[2-[(3S)-3-[(7-fluoro-5-quinolyl)amino]pyrrolidin-1-yl]acetyl]pyrrolidine-2-carbonitrile], for which the IC50 was 0.0015 µM on Recombinant human FAP; 3.47 µM on recombinant human DPP7; over 100 µM on recombinant human DPP8; 18.8 µM at recombinant human DPP9; 8900 nM at recombinant human PREP; over 10 µM on DPP4.

On to `COc1cc(N[C@H]2CCN(CC(=O)N3CCC[C@H]3C#N)C2)c2cccnc2c1` [Example 237, (2S)-1-[2-[(3S)-3-[(7-methoxy-5-quinolyl)amino]pyrrolidin-1-yl]acetyl]pyrrolidine-2-carbonitrile], for which the IC50 on Recombinant human FAP was 0.0015 µM; at recombinant human DPP7 it was 0.746 µM; at recombinant human DPP8, 22.6 µM; at recombinant human DPP9 it was 34.6 µM; at recombinant human PREP, 6600 nM; at DPP4 it was 9.29 µM.

Take `N#C[C@@H]1CCCN1C(=O)CN1CC[C@H](Nc2cc(C(F)(F)F)cc3ncccc23)C1` [Example 238, (2S)-1-[2-[(3S)-3-[[7-(trifluoromethyl)-5-quinolyl]amino]pyrrolidin-1-yl]acetyl]pyrrolidine-2-carbonitrile]: the IC50 on Recombinant human FAP was 0.0014 µM; on recombinant human DPP7, 2.21 µM; on recombinant human DPP8 it was over 100 µM; on recombinant human DPP9, 29.3 µM; on recombinant human PREP, 3930 nM; on DPP4, over 10 µM.

As to `Cc1ccc2ncccc2c1N[C@H]1CCN(CC(=O)N2CCC[C@H]2C#N)C1` [Example 239, (2S)-1-[2-[(3S)-3-[(6-methyl-5-quinolyl)amino]pyrrolidin-1-yl]acetyl]pyrrolidine-2-carbonitrile], the IC50 on Recombinant human FAP is 0.006 µM; at recombinant human DPP7, 7.28 µM; on recombinant human DPP8, 74.3 µM; on recombinant human DPP9 it was 43.9 µM; at recombinant human PREP, 9980 nM; on DPP4, over 10 µM.

As for `N#C[C@@H]1CCCN1C(=O)CN1CC[C@H](Nc2c(F)ccc3ncccc23)C1` [Example 241, (2S)-1-[2-[(3S)-3-[(6-fluoro-5-quinolyl)amino]pyrrolidin-1-yl]acetyl]pyrrolidine-2-carbonitrile], the IC50 was 0.0045 µM on Recombinant human FAP; 17 µM on recombinant human DPP7; 77.3 µM at recombinant human DPP8; 48 µM at recombinant human DPP9; 13000 nM at recombinant human PREP; over 10 µM on DPP4.

`Cc1ccc(N[C@H]2CCN(CC(=O)N3CCC[C@H]3C#N)C2)c2cccnc12` [Example 242, (2S)-1-[2-[(3S)-3-[(8-methyl-5-quinolyl)amino]pyrrolidin-1-yl]acetyl]pyrrolidine-2-carbonitrile]: the IC50 on Recombinant human FAP is 0.0017 µM; on recombinant human DPP7, 1.7 µM; on recombinant human DPP8 it was 11 µM; at recombinant human DPP9, 19.3 µM; at recombinant human PREP, 8440 nM; at DPP4, over 10 µM.

On to `N#C[C@@H]1CCCN1C(=O)CN1CC[C@H](Nc2ccc(OC(F)(F)F)c3ncccc23)C1` [Example 246, (2S)-1-[2-[(3S)-3-[[8-(trifluoromethoxy)-5-quinolyl]amino]pyrrolidin-1-yl]acetyl]pyrrolidine-2-carbonitrile], for which the IC50 was 0.0009 µM at Recombinant human FAP; 2.56 µM on recombinant human DPP7; over 30 µM on recombinant human DPP8; 21 µM on recombinant human DPP9; 11300 nM on recombinant human PREP; over 10 µM on DPP4.

With `N#C[C@@H]1CCCN1C(=O)CN1CC[C@H](Nc2ccc(OCc3ccccc3)c3ncccc23)C1` [Example 248, (2S)-1-[2-[(3S)-3-[(8-benzyloxy-5-quinolyl)amino]pyrrolidin-1-yl]acetyl]pyrrolidine-2-carbonitrile], the IC50 on Recombinant human FAP is 0.0031 µM; at recombinant human DPP7, 0.81 µM; on recombinant human DPP8 it was 5.34 µM; at recombinant human DPP9, 3.68 µM; on recombinant human PREP, 6160 nM; on DPP4, 7.07 µM.

For `N#C[C@@H]1C[C@H](F)CN1C(=O)CN1CC[C@H](Nc2cnc3ccccc3c2)C1` [Example 249, (2S,4S)-4-fluoro-1-[2-[(3S)-3-(3-quinolylamino)pyrrolidin-1-yl]acetyl]pyrrolidine-2-carbonitrile], the IC50 was 0.006 µM on Recombinant human FAP; 0.489 µM at recombinant human DPP7; over 3 µM on recombinant human DPP8; 5.77 µM on recombinant human DPP9; 1050 nM at recombinant human PREP; 1.45 µM on DPP4.

Take `N#C[C@@H]1C[C@H](F)CN1C(=O)CN1CC[C@H](Nc2ccc3ncccc3c2)C1` [Example 250, (2S,4S)-4-fluoro-1-[2-[(3S)-3-(6-quinolylamino)pyrrolidin-1-yl]acetyl]pyrrolidine-2-carbonitrile]: the IC50 at Recombinant human FAP stood at 0.0034 µM; at recombinant human DPP7, 0.654 µM; at recombinant human DPP8 it was 2.28 µM; on recombinant human DPP9 it was 3.69 µM; on recombinant human PREP, 2160 nM; on DPP4, 0.964 µM.

Consider `N#Cc1ccc2c(N[C@H]3CCN(CC(=O)N4C[C@@H](F)C[C@H]4C#N)C3)cccc2n1` [Example 252, 5-[[(3S)-1-[2-oxo-2-[(2S,4S)-2-cyano-4-fluoro-pyrrolidin-1-yl]ethyl]pyrrolidin-3-yl]amino]quinoline-2-carbonitrile], for which the IC50 on Recombinant human FAP was 0.0008 µM; on recombinant human DPP7, 0.308 µM; at recombinant human DPP8 it was 2.48 µM; on recombinant human DPP9 it was 4.93 µM; at recombinant human PREP, 3320 nM; on DPP4, 1.63 µM.

For the origin of these results see patent publication US11655235B2, “Pyrrolidine and piperidine compounds” (YUHAN CORPORATION, priority 2019, dated 2023).
